One data set has as its target JAK1 kinase (Homo sapiens (Human), UniProt P23458). Description: Assay for inhibiting JAK1 kinase (in vitro kinase assay, HRP anti-phosphotyrosine antibody/TMB absorbance). The data set is classed as biochemical. Conditions: 20 μM ATP, 50 minutes at room temperature; read-out: IC50 (JAK1/Bio). How it is done: In vitro activity of compounds of the present invention for inhibiting JAK1 kinase was determined by the following method.
IC50 values of test compounds was calculated from the data of the test compounds in inhibiting the activity of JAK1 kinase at different concentrations.

The nature of data set [1]: Pharmacokinetics assay in rats, intragastric administration, plasma by LC/MS/MS. It is filed as in vivo, Sprague-Dawley (SD) rats. As to conditions: SD rats, 10 mg/kg. How it is done:
Rats were used as test animals. […] The pharmacokinetic behavior of the compounds of the present invention was studied and evaluated in rats.
56 Healthy adult Sprague-Dawley (SD) rats, half male and half female, purchased from SINO-BRITSH SIPPR/BK LAB.
The appropriate amount of test compounds were weighed and mixed with 1.0 mL of dimethyl sulfoxide to prepare a 1.0 mg/mL suspension.
After an overnight fast, SD rats were administered intragastrically at a dose of 10.0 mg/kg and an administration volume of 10 mL/kg.
The plasma samples were stored at −20° C. The rats were fed 2 hours after administration.
Content determination of the test compounds in rat plasma after intragastrically administering at different concentrations: 50 μL of rat plasmas taken at various time points after administration were mixed with 50 μL of internal standard solution and 100 μL of methanol and mixed for 3 minutes by a vortexer. The mixture was centrifuged for 10 minutes at 13,500 rpm. 10 μL of the supernatant was taken from the plasma sample and analyzed by LC-MS/MS.
Pharmacokinetic Parameters of the compounds of the present invention were shown as follows: […]

Broadly, the AUC is concentration integrated over time. By half-life is commonly meant the time needed for the level to fall by half in the phase considered. Broadly, the MRT is the average time that molecules of a dose stay in the body. Usually Cmax stands for the peak of the concentration-time curve.

Sequence of JAK1 kinase (P23458 whole entry): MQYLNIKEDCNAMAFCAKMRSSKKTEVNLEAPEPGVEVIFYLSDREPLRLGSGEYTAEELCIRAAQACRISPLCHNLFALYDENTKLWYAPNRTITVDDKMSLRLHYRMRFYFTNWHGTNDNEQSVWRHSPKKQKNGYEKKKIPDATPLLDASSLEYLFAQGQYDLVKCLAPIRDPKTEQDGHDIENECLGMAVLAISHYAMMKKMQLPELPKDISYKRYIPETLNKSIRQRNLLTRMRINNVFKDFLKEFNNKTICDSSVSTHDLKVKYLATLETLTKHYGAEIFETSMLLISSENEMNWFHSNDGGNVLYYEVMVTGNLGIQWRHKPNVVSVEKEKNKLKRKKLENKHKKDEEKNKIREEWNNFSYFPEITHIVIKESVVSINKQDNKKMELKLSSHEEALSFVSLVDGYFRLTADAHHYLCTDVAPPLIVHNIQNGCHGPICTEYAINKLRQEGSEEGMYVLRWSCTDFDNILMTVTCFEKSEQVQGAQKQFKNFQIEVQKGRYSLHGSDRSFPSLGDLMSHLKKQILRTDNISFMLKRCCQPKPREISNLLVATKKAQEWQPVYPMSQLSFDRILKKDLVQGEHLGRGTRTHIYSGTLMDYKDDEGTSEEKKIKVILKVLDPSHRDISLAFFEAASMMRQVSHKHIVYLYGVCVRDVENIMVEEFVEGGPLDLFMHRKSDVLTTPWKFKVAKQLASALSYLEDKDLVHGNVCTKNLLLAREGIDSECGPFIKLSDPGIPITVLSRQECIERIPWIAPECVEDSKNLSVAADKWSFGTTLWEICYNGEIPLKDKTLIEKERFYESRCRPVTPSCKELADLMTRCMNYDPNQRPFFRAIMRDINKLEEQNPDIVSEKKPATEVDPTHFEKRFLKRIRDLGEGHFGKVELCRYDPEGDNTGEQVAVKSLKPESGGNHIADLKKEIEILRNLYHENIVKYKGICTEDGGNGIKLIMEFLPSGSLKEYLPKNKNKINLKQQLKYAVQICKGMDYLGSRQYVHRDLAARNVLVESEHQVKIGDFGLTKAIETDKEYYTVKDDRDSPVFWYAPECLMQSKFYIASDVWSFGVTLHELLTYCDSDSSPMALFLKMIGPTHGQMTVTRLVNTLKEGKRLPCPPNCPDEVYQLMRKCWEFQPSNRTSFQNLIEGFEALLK

On to `CN(c1ncnc2[nH]ccc12)[C@H]1C[C@@H]2CN(C(=O)OC(C)(C)C)C[C@@H]2C1` [Example 5, (3aR,5S,6aS)-tert-butyl 5-(methyl(7H-pyrrolo[2,3-d]pyrimidin-4-yl)amino)hexahydro cyclopenta[c]pyrrole-2(1H)-carboxylate], for which the IC50 at JAK1 kinase came to 30 nM. Same read-out and setting: then `CN(c1ncnc2[nH]ccc12)[C@H]1C[C@@H]2CN(C(=O)CC#N)C[C@@H]2C1` [Example 8, 3-((3aR,5S,6aS)-5-(Methyl(7H-pyrrolo[2,3-d]pyrimidin-4-yl)amino)hexahydrocyclopenta[c]pyrrol-2(1H)-yl)-3-oxopropanenitrile], with 32 nM; and `CC(=O)N1C[C@H]2C[C@H](N(C)c3ncnc4[nH]ccc34)C[C@H]2C1` [Example 11, 1-((3aR,5S,6aS)-5-(Methyl(7H-pyrrolo[2,3-d]pyrimidin-4-yl)amino)hexahydrocyclopenta[c]pyrrol-2(1H)-yl)ethanone], with 33 nM.

As to `CN(c1ncnc2[nH]ccc12)[C@H]1C[C@@H]2CN(C(=O)C3CC3)C[C@@H]2C1` [Example 13, Cyclopropyl((3aR,5S,6aS)-5-(methyl(7H-pyrrolo[2,3-d]pyrimidin-4-yl)amino)hexahydrocyclopenta[c]pyrrol-2(1H)-yl)methanone], the IC50 at JAK1 kinase turned out to be 30 nM. Still for that read-out and setting: the figure for `CN(c1ncnc2[nH]ccc12)[C@H]1C[C@@H]2CN(S(=O)(=O)C3CC3)C[C@@H]2C1` [Example 15, N-((3aR,5S,6aS)-2-(Cyclopropylsulfonyl)octahydrocyclopenta[c]pyrrol-5-yl)-N-methyl-7H-pyrrolo[2,3-d]pyrimidin-4-amine] is 80 nM; for `COCC(=O)N1C[C@H]2C[C@H](N(C)c3ncnc4[nH]ccc34)C[C@H]2C1` [Example 18, 2-Methoxy-1-((3aR,5S,6aS)-5-(methyl(7H-pyrrolo[2,3-d]pyrimidin-4-yl)amino)hexahydrocyclopenta[c]pyrrol-2(1H)-yl)ethanone] it is 49 nM. On the same count and under the same terms, then `C[C@@H](O)C(=O)N1C[C@H]2C[C@H](N(C)c3ncnc4[nH]ccc34)C[C@H]2C1` [Example 19, (R)-2-Hydroxy-1-((3aR,5S,6aS)-5-(methyl(7H-pyrrolo[2,3-d]pyrimidin-4-yl)amino)hexahydrocyclopenta[c]pyrrol-2(1H)-yl)propan-1-one], with 48 nM. Same read-out and setting: then `CN(c1ncnc2[nH]ccc12)[C@H]1C[C@@H]2CN(C(=O)CNS(C)(=O)=O)C[C@@H]2C1` [Example 21, N-(2-((3aR,5S,6aS)-5-(Methyl(7H-pyrrolo[2,3-d]pyrimidin-4-yl)amino)hexahydrocyclopenta[c]pyrrol-2(1H)-yl)-2-oxoethyl)methanesulfonamide], with 17 nM; and `CN(c1ncnc2[nH]ccc12)[C@@H]1C[C@@H]2CN(C(=O)CO)C[C@@H]2C1` [Example 23, 2-Hydroxy-1-((3aR,5R,6aS)-5-(methyl(7H-pyrrolo[2,3-d]pyrimidin-4-yl)amino)hexahydrocyclopenta[c]pyrrol-2(1H)-yl)ethanone], with 21 nM; and `CN(c1ncnc2[nH]ccc12)[C@H]1C[C@@H]2CN(CC#N)C[C@@H]2C1` [Example 26, 2-((3aR,5S,6aS)-5-(Methyl(7H-pyrrolo[2,3-d]pyrimidin-4-yl)amino)hexahydrocyclopenta[c]pyrrol-2(1H)-yl)acetonitrile], with 46 nM. For `CN(c1ncnc2[nH]ccc12)[C@H]1C[C@@H]2CN(CCC#N)C[C@@H]2C1` [Example 27, 3-((3aR,5S,6aS)-5-(Methyl(7H-pyrrolo[2,3-d]pyrimidin-4-yl)amino)hexahydrocyclopenta[c]pyrrol-2(1H)-yl)propanenitrile], the IC50 at JAK1 kinase was 30 nM. Still for that read-out and setting: the figure for `CN(c1ncnc2[nH]ccc12)[C@H]1C[C@@H]2CN(S(C)(=O)=O)C[C@@H]2C1` [Example 51, N-methyl-N-((3aR,5S,6aS)-2-(methylsulfonyl)octahydrocyclopenta[c]pyrrol-5-yl)-7H-pyrrolo[2,3-d]pyrimidin-4-amine] is 100 nM. Same read-out and setting: the figure for `C[C@H](O)C(=O)N1C[C@H]2C[C@@H](N(C)c3ncnc4[nH]ccc34)C[C@H]2C1` [Example 71, (S)-2-hydroxy-1-((3aR,5S,6aS)-5-(methyl(7H-pyrrolo[2,3-d]pyrimidin-4-yl)amino)hexahydrocyclopenta[c]pyrrol-2(1H)-yl)propan-1-one] is 36 nM; for `C[C@@H](O)C(=O)N1C[C@H]2C[C@@H](N(C)c3ncnc4[nH]ccc34)C[C@H]2C1` [Example 72, (R)-2-hydroxy-1-((3aR,5R,6aS)-5-(methyl(7H-pyrrolo[2,3-d]pyrimidin-4-yl)amino)hexahydrocyclopenta[c]pyrrol-2(1H)-yl)propan-1-one] it is 42 nM. Same read-out and setting: then `CNC(=O)N1C[C@H]2C[C@H](N(C)c3ncnc4[nH]ccc34)C[C@H]2C1` [Example 80, (3aR,5S,6aS)-N-methyl-5-(methyl(7H-pyrrolo[2,3-d]pyrimidin-4-yl)amino)hexahydrocyclopenta[c]pyrrole-2(1H)-carboxamide], with 127 nM; and `CN(c1ncnc2[nH]ccc12)[C@H]1C[C@@H]2CN(C(=O)[C@H](O)c3ccccc3)C[C@@H]2C1` [Example 81, (R)-2-hydroxy-1-((3aR,5S,6aS)-5-(methyl(7H-pyrrolo[2,3-d]pyrimidin-4-yl)amino)hexahydrocyclopenta[c]pyrrol-2(1H)-yl)-2-phenylethanone], with 113 nM.

As to `CN(c1ncnc2[nH]ccc12)[C@H]1C[C@@H]2CN(C(=O)Nc3nc(OCC(C)(C)O)ns3)C[C@@H]2C1` [Example 99, (3aR,5S,6aS)-N-(3-(2-hydroxy-2-methylpropoxy)-1,2,4-thiadiazol-5-yl)-5-(methyl(7H-pyrrolo[2,3-d]pyrimidin-4-yl)amino)hexahydrocyclopenta[c]pyrrole-2(1H)-carboxamide], the Vd/F in data set [1] (both sexes, Sprague-Dawley, rat, plasma, po, read-out: Apparent Distribution Volume Vz/F) came out at 2.76 ± 1.53 L/kg. For the same compound, in data set [1] (both sexes, Sprague-Dawley, rat, plasma, po, read-out: Area Under Curve AUC), the AUC was 14900 ± 10400 ng·h/mL. Besides, in data set [1] (both sexes, Sprague-Dawley, rat, plasma, po, read-out: Clearance CL/F), the CL/F was 18.3 ± 14.2 mL/min/kg. Further, the half-life in data set [1] (both sexes, Sprague-Dawley, rat, plasma, po, read-out: Half-Life t½ (converted)) is 2.1 ± 0.73 h. In addition, the MRT in data set [1] (both sexes, Sprague-Dawley, rat, plasma, po, read-out: Mean Residence Time MRT) turned out to be 3.81 ± 0.82 h. Moreover, the Cmax in data set [1] (both sexes, Sprague-Dawley, rat, plasma, po, read-out: Plasma Conc. Cmax) came out at 2670 ± 1450 ng/mL. With `CCc1nsc(NC(=O)N2C[C@H]3C[C@H](N(C)c4ncnc5[nH]ccc45)C[C@H]3C2)n1` [Example 121, (3aR,5S,6aS)-N-(3-ethyl-1,2,4-thiadiazol-5-yl)-5-(methyl(7H-pyrrolo[2,3-d]pyrimidin-4-yl)amino)hexahydrocyclopenta[c]pyrrole-2(1H)-carboxamide], in data set [1], the “Apparent Distribution Volume Vz/F” value came out at 7.203 ± 8.113 L/kg, the “Area Under Curve AUC” value is 9617 ± 7909 ng·h/mL, the “Clearance CL/F” value stood at 31.9 ± 26.9 mL/min/kg and the “Mean Residence Time MRT” value is listed as 3.40 ± 0.91 h. Further, the “Plasma Conc. Cmax” value in data set [1] was 2071 ± 1473 ng/mL. Turning to `CN(c1ncnc2[nH]ccc12)[C@H]1C[C@@H]2CN(C(=O)Nc3nc(C4CC4)ns3)C[C@@H]2C1` [Example 125, (3aR,5S,6aS)-N-(3-cyclopropyl-1,2,4-thiadiazol-5-yl)-5-(methyl(7H-pyrrolo[2,3-d]pyrimidin-4-yl)amino)hexahydrocyclopenta[c]pyrrole-2(1H)-carboxamide], in data set [1], the “Apparent Distribution Volume Vz/F” value was 18.063 ± 20.748 L/kg, the “Area Under Curve AUC” value was determined as 5997 ± 4741 ng·h/mL, the “Clearance CL/F” value amounted to 46.1 ± 35.6 mL/min/kg and the “Plasma Conc. Cmax” value is 1061 ± 677 ng/mL.

The record behind these values is US9527851B2, “Pyrrole six-membered heteroaryl ring derivative, preparation method thereof, and medicinal uses thereof” (Jiangsu Hengrui Medicine Co., Ltd., priority 2011, dated 2016).
